The values that follow are results of earlier work, collected in patent US6468258B1, “Plastic compositions including vitamin E for medical containers and methods for providing such compositions and containers” (Baxter International Inc., priority 1997, dated 2002).

For this data set, the system named is red blood cells. The following applies: Vitamin E added directly to red blood cells; as reported in U.S. Pat. No. 5,037,419.

For Vitamin E, the hemolysis result is “lower hemolysis”.
